The subject of assay [1] is erythroid progenitor cells (EPCs). Briefly: Fetal hemoglobin (HbF) ELISA in day 7 erythroid progenitor cells.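 Also: for fetal hemoglobin induction normalized to vehicle-treated cells.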 As to conditions: Homo sapiens, Erythroid progenitor cell, HbF ELISA, day 7 EPCs, 5 days; read-out: EPC ELISA (pEC50 category) (converted). It counts as cell-based, human. In short, it runs like this:
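HbF induction was read by anti-HbF sandwich ELISA (HRP/TMB, OD450) on lysates and normalized to vehicle-treated cells. Cells were day 7 erythroid progenitors derived from human bone marrow CD34+ cells, seeded at 1,000/well with 3 U/mL rhEPO. Compound was given for 5 days at 37 °C at final concentrations […].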
(ELISA stands for enzyme-linked immunosorbent assay.)

In assay [2] the target is DNMT1 (Homo sapiens, UniProt P26358). Description: DNMT1 biochemical activity, breaklight assay and/or SPA assay.
Where [3] appears, read: binned activity in either the breaklight or the SPA assay, read-out: DNMT1 BioChemical (pIC50 category) (converted).
[4] abbreviates: binned activity in either the breaklight or the SPA assay.

Counter-ions that a name gives are not always drawn. Like-named read-outs stand apart in the source and are kept apart here.

Sequence of DNMT1 (P26358 whole entry, looked up): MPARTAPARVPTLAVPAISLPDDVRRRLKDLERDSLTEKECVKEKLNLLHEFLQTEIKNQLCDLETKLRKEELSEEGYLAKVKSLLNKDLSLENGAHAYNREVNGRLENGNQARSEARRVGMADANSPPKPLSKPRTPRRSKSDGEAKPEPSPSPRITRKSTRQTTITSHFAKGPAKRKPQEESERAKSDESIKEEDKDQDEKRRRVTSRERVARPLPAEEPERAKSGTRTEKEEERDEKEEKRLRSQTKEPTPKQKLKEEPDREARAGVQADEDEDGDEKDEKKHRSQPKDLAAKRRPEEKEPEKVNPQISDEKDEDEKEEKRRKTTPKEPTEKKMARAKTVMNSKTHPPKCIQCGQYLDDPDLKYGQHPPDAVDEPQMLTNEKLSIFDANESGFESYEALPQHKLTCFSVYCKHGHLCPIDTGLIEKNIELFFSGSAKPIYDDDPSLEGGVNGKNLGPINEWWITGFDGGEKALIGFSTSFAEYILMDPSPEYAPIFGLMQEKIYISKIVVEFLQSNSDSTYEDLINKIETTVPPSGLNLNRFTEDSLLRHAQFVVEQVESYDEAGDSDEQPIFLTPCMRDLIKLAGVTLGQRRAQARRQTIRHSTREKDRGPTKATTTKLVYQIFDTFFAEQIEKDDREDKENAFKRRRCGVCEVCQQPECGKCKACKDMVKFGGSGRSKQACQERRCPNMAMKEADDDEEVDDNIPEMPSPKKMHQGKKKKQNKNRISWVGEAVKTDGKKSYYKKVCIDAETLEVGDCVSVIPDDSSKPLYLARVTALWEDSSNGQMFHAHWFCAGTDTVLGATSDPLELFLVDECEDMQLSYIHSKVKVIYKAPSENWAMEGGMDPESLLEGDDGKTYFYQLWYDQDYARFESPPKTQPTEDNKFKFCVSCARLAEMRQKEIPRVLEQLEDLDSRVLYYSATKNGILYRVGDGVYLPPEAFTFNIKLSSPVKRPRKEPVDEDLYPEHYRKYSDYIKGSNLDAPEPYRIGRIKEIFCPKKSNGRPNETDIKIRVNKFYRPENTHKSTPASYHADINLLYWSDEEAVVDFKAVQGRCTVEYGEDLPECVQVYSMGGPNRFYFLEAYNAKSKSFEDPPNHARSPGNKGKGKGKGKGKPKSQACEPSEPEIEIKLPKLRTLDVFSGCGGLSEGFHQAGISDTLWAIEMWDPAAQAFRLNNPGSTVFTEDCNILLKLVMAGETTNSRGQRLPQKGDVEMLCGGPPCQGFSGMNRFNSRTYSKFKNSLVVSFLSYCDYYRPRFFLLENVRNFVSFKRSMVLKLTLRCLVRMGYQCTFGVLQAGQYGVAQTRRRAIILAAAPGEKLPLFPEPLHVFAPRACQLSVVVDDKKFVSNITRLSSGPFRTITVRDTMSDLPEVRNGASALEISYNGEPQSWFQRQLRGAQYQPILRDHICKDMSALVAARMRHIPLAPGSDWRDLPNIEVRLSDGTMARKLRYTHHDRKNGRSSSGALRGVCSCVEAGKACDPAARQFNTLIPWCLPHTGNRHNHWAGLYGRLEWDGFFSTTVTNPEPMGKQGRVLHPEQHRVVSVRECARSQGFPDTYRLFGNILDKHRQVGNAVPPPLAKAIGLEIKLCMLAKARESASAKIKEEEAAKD

Consider `CCc1c(C#N)c(SC(C(N)=O)c2ccccc2)nc(N2CCC(=O)N(C)CC2)c1C#N` (stereo not drawn) [Example 111, 2-{[3,5-Dicyano-4-ethyl-6-(4-methyl-5-oxo-1,4-diazepan-1-yl)pyridin-2-yl]sulfanyl}-2-phenylacetamide], for which the EC50 in assay [1] was < 0.316 µM. The IC50 in assay [2] (setting [3]) was 0.316 to 1 µM.

In the case of `CCc1c(C#N)c(SC(C(N)=O)c2ccccc2)nc(N2CCC(F)(F)CC2)c1C#N` (stereo not drawn) [Example 133, 2-((3,5-Dicyano-6-(4,4-difluoropiperidin-1-yl)-4-ethylpyridin-2-yl)thio)-2-phenylacetamide], in assay [1], the EC50 is 1 to 31.6 µM. The IC50 is 1 to 31.6 µM in assay [2] (setting [3]) and ≥ 1 µM in assay [2] (breaklight assay and/or SPA assay, repeated experimental runs, read-out: average pIC50 against DNMT1 (converted)).

For `CCc1c(C#N)c(SC(C(N)=O)c2ccccc2)nc(N2CCC[C@@H](CNC(=O)C(C)(C)N)C2)c1C#N` (stereo partly drawn) [Example 588, 2-amino-N-(((3S)-1-(6-((2-amino-2-oxo-1-phenylethyl)thio)-3,5-dicyano-4-ethylpyridin-2-yl)piperidin-3-yl)methyl)-2-methylpropanamide], the EC50 in assay [1] was < 0.316 µM. Also, the “DNMT1 BioChemical (pIC50 category)” value in assay [2] (setting [4]) is “D (Category D: ≥6.5)”.

`CCc1c(C#N)c(SC(C(N)=O)c2ccccc2)nc(N(C)CC(=O)N(C)CC2(CO)CC2)c1C#N` (stereo not drawn) [Example 609, 2-((6-((2-amino-2-oxo-1-phenylethyl)thio)-3,5-dicyano-4-ethylpyridin-2-yl)(methyl)amino)-N-((1-(hydroxymethyl)cyclopropyl)methyl)-N-methylacetamide]: in assay [1], the EC50 is < 0.316 µM. Further, the “DNMT1 BioChemical (pIC50 category)” value in assay [2] (setting [4]) is recorded as “D (Category D: ≥6.5)”.

On to `CCc1c(C#N)c(SCc2ccc(N(C)S(C)(=O)=O)cc2)nc(N2CCC(NC3CC3)CC2)c1C#N` [Example 573, N-(4-(((3,5-dicyano-6-(4-(cyclopropylamino)piperidin-1-yl)-4-ethylpyridin-2-yl)thio)methyl)phenyl)-N-methylmethanesulfonamide], for which, in assay [1], the EC50 was < 0.316 µM. In assay [2] (setting [4]), the “DNMT1 BioChemical (pIC50 category)” value is “D (Category D: ≥6.5)”.

In the case of `CCc1c(C#N)c(S[C@@H](C(N)=O)c2ccc(OC)cc2)nc(N2CC[C@H](O)C2)c1C#N` [Example 422, (R)-2-((3,5-dicyano-4-ethyl-6-((S)-3-hydroxypyrrolidin-1-yl)pyridin-2-yl)thio)-2-(4-methoxyphenyl)acetamide], the EC50 in assay [1] was < 0.316 µM. In addition, the “DNMT1 BioChemical (pIC50 category)” value in assay [2] (setting [4]) is reported as “D (Category D: ≥6.5)”.

On to `CCc1c(C#N)c(S[C@@H](C(N)=O)c2ccc(F)cc2)nc(N2CC[C@H](OP(=O)(O)O)C2)c1C#N` [Example 426, (S)-1-(6-(((R)-2-amino-1-(4-fluorophenyl)-2-oxoethyl)thio)-3,5-dicyano-4-ethylpyridin-2-yl)pyrrolidin-3-yl dihydrogen phosphate], for which, in assay [1], the EC50 was > 31.6 µM. For the same molecule, the IC50 in assay [2] (setting [3]) was 1 to 31.6 µM.

With `CCc1c(C#N)c(SC(C(N)=O)c2ccc(C(=O)c3ccccc3)cc2)nc(N2CCCN(CCO)CC2)c1C#N` (stereo not drawn) [Example 245, 2-(4-Benzoylphenyl)-2-((3,5-dicyano-4-ethyl-6-(4-(2-hydroxyethyl)-1,4-diazepan-1-yl)pyridin-2-yl)thio)acetamide], the EC50 in assay [1] was 0.316 to 1 µM. In assay [2] (setting [3]), the IC50 was 0.316 to 1 µM.

On to `CCc1c(C#N)c(SC(C(N)=O)c2ccccc2)nc(N2CCC(C(N)=O)CC2)c1C#N` (stereo not drawn) [Example 217, 1-(6-((2-Amino-2-oxo-1-phenylethyl)thio)-3,5-dicyano-4-ethylpyridin-2-yl)piperidine-4-carboxamide], for which the EC50 in assay [1] was 1 to 31.6 µM. Moreover, in assay [2] (setting [3]), the IC50 was 0.316 to 1 µM.

For the molecule `CCc1c(C#N)c(S[C@@H](C(N)=O)c2ccccc2)nc(N2CC[C@H](NC(=O)OC(C)(C)C)[C@H](O)C2)c1C#N` [Example 537, tert-butyl ((3R,4S)-1-(6-(((R)-2-amino-2-oxo-1-phenylethyl)thio)-3,5-dicyano-4-ethylpyridin-2-yl)-3-hydroxypiperidin-4-yl)carbamate], the EC50 in assay [1] was 0.316 to 1 µM. In addition, the “DNMT1 BioChemical (pIC50 category)” value in assay [2] (setting [4]) is recorded as “D (Category D: ≥6.5)”.

For the molecule `CCc1c(C#N)c(S[C@H](C(N)=O)c2ccccc2)nc(N2CC[C@H](OP(=O)(O)O)C2)c1C#N` [Example 417, (S)-1-(6-(((S)-2-amino-2-oxo-1-phenylethyl)thio)-3,5-dicyano-4-ethylpyridin-2-yl)pyrrolidin-3-yl dihydroden phosphate], the EC50 in assay [1] was > 31.6 µM. Besides, in assay [2] (setting [4]), the “DNMT1 BioChemical (pIC50 category)” value is on record as “A (Category A: <4.5)”.

As to `CCc1c(C#N)c(S[C@H](C(N)=O)c2ccccc2)nc(N2CCC(C)(N)CC2)c1C#N` (single isomer, unassigned) [Example 608, 2-((6-(4-amino-4-methylpiperidin-1-yl)-3,5-dicyano-4-ethylpyridin-2-yl)thio)-2-phenylacetamide], the EC50 in assay [1] was < 0.316 µM. The “DNMT1 BioChemical (pIC50 category)” value in assay [2] (setting [4]) is recorded as “D (Category D: ≥6.5)”.

Turning to `CCc1c(C#N)c(SCc2ccc(N(C)S(C)(=O)=O)cc2)nc(N2CCOC(CN3CCCC3)C2)c1C#N` (stereo not drawn) [Example 574, N-(4-(((3,5-dicyano-4-ethyl-6-(2-(pyrrolidin-1-ylmethyl)morpholino)pyridin-2-yl)thio)methyl)phenyl)-N-methylmethanesulfonamide], the EC50 in assay [1] is < 0.316 µM. In assay [2] (setting [4]), the “DNMT1 BioChemical (pIC50 category)” value is on record as “D (Category D: ≥6.5)”.

Take `CCc1c(C#N)c(SC(C(N)=O)c2ccccc2)nc(N2CCC(NC(=O)[C@@H](C)N)CC2)c1C#N` (stereo partly drawn) [Example 366, (2R)-2-Amino-N-(1-(6-((2-amino-2-oxo-1-phenylethyl)thio)-3,5-dicyano-4-ethylpyridin-2-yl)piperidin-4-yl)propanamide, Hydrochloride]: the EC50 in assay [1] is < 0.316 µM. The “DNMT1 BioChemical (pIC50 category)” value in assay [2] (setting [4]) was “D (Category D: ≥6.5)”.

`CCc1c(C#N)c(SC(C(N)=O)c2ccc(CC(N)=O)cc2)nc(N2CCCN(C)CC2)c1C#N` (stereo not drawn) [Example 400, 2-(4-(2-Amino-2-oxoethyl)phenyl)-2-(3,5-dicyano-4-ethyl-6-(4-methyl-1,4-diazepan-1-yl)pyridin-2-ylthio)acetamide]: the EC50 in assay [1] is 1 to 31.6 µM. Besides, the “DNMT1 BioChemical (pIC50 category)” value in assay [2] (setting [4]) is on record as “D (Category D: ≥6.5)”.

Take `CCc1c(C#N)c(SC(C(N)=O)c2ccccc2)nc(N2CCC(NCC(C)(C)OC)CC2)c1C#N` (stereo not drawn) [Example 446, 2-((3,5-dicyano-4-ethyl-6-(4-((2-methoxy-2-methylpropyl)amino)piperidin-1-yl)pyridin-2-yl)thio)-2-phenylacetamide]: in assay [1], the EC50 is < 0.316 µM. Also, in assay [2] (setting [4]), the “DNMT1 BioChemical (pIC50 category)” value is on record as “D (Category D: ≥6.5)”.

Regarding `CCc1c(C#N)c(SC(C(N)=O)c2ccccc2)nc(N2CC[C@@H](N)[C@H](F)C2)c1C#N` (relative stereo) [Example 508, rel-2-((6-(trans)-4-amino-3-fluoropiperidin-1-yl)-3,5-dicyano-4-ethylpyridin-2-yl)thio)-2-phenylacetamide], in assay [1], the EC50 was < 0.316 µM. In assay [2] (setting [3]), the IC50 is < 0.316 µM.

For the molecule `CCc1c(C#N)c(SC(C(N)=O)c2ccccc2)nc(N2CCC(N)(CO)CC2)c1C#N` (stereo not drawn) [Example 242, 2-((6-(4-Amino-4-(hydroxymethyl)piperidin-1-yl)-3,5-dicyano-4-ethylpyridin-2-yl)thio)-2-phenylacetamide, Trifluoroacetic Acid Salt], the EC50 in assay [1] was < 0.316 µM. Also, in assay [2] (setting [4]), the “DNMT1 BioChemical (pIC50 category)” value is recorded as “D (Category D: ≥6.5)”.

Consider `CCc1c(C#N)c(SC(C(N)=O)c2ccccc2)nc(N2CCC[C@@H](CNC(=O)CN)C2)c1C#N` (stereo partly drawn) [Example 589, 2-amino-N-(((3S)-1-(6-((2-amino-2-oxo-1-phenylethyl)thio)-3,5-dicyano-4-ethylpyridin-2-yl)piperidin-3-yl)methyl)acetamide], for which, in assay [1], the EC50 is 0.316 to 1 µM. Further, the “DNMT1 BioChemical (pIC50 category)” value in assay [2] (setting [4]) is reported as “D (Category D: ≥6.5)”.

Take `CCc1c(C#N)c(SCc2ccc(CNC(=O)CC(C)C)cc2)nc(N2CCCN(C)CC2)c1C#N` [Example 89, N-(4-(((3,5-Dicyano-4-ethyl-6-(4-methyl-1,4-diazepan-1-yl)pyridin-2-yl)thio)methyl)benzyl)-3-methylbutanamide]: in assay [1], the EC50 was > 31.6 µM. The IC50 in assay [2] (setting [3]) was 0.316 to 1 µM.

Take `CCc1c(C#N)c(SC(C(N)=O)c2ccccc2)nc(N2CCC(N(C)CC)CC2)c1C#N` (stereo not drawn) [Example 549, 2-((3,5-dicyano-4-ethyl-6-(4-(ethyl(methyl)amino)piperidin-1-yl)pyridin-2-yl)thio)-2-phenylacetamide]: the EC50 in assay [1] was < 0.316 µM. Moreover, the “DNMT1 BioChemical (pIC50 category)” value in assay [2] (setting [4]) was “D (Category D: ≥6.5)”.

In the case of `N#Cc1c(SC(C(N)=O)c2ccccc2)nc(N2CCC[C@@H](O)C2)c(C#N)c1C1CC1` (stereo partly drawn) [Example 32, 2-((3,5-dicyano-4-cyclopropyl-6-((R)-3-hydroxypiperidin-1-yl)pyridin-2-yl)thio)-2-phenylacetamide], the EC50 in assay [1] was 1 to 31.6 µM. The “DNMT1 BioChemical (pIC50 category)” value in assay [2] (setting [4]) is reported as “D (Category D: ≥6.5)”.

As to `CCc1c(C#N)c(SC(C(N)=O)c2ccccc2)nc(N2CCC(N3CCN(C)CC3)CC2)c1C#N` (stereo not drawn) [Example 450, 2-((3,5-dicyano-4-ethyl-6-(4-(4-methylpiperazin-1-yl)piperidin-1-yl)pyridin-2-yl)thio)-2-phenylacetamide], the EC50 in assay [1] is < 0.316 µM. Besides, the “DNMT1 BioChemical (pIC50 category)” value in assay [2] (setting [4]) is listed as “D (Category D: ≥6.5)”.

Consider `CCc1c(C#N)c(S[C@H](C(N)=O)c2ccccc2)nc(N2C[C@H](O)CO2)c1C#N` (single isomer, unassigned) [Example 694], for which, in assay [1], the EC50 was 1 to 31.6 µM. Besides, the “DNMT1 BioChemical (pIC50 category)” value in assay [2] (setting [4]) is listed as “D (Category D: ≥6.5)”.

Take `CCc1c(C#N)c(SC(C(N)=O)c2cccc(F)c2F)nc(N2CC[C@H](O)C2)c1C#N` (stereo partly drawn) [Example 429]: in assay [1], the EC50 is 0.316 to 1 µM. The IC50 in assay [2] (setting [3]) is 0.316 to 1 µM.

The values are drawn from patent US10975056B2 (GlaxoSmithKline Intellectual Property Development Limited, priority 2016, dated 2021).
